Columns and labels:
Cbl-b = Cbl-b (Homo sapiens (Human), UniProt Q13191); assay: Cbl-b LCK Ub TR-FRET assay (Cbl-b Lck HTRF); assay type: biochemical; details: for IC50: Cbl-b LCK Ub TR-FRET
Summary of the method: (§1)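 After the ubiquitination reaction, detection mixture was added and plates incubated 20 min at room temperature before reading. IC50 values were calculated with wells lacking LCK as the low control and DMSO as the high control.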

c-Cbl = c-Cbl (Homo sapiens (Human), UniProt P22681); assay: C-Cbl LCK Ub TR-FRET assay (C-cbl Lck HTRF); assay type: biochemical
Chain of c-Cbl (P22681 47-435): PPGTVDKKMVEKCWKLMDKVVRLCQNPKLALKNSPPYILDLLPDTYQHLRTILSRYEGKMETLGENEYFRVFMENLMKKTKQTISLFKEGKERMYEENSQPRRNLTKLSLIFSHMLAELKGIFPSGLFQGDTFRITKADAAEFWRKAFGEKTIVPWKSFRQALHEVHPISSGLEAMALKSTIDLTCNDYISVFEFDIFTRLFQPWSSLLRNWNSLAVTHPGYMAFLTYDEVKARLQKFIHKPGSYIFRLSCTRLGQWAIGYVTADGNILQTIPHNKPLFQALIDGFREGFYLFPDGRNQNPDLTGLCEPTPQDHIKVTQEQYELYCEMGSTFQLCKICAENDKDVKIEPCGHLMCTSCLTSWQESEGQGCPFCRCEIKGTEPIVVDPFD
Summary of the method: as §1

[1] = target: Human Cbl-b (residues 40-426) (Homo sapiens (Human), UniProt Q13191); assay: Cbl-b SPR assay; assay type: binding; details: for Fold of selectivity: C-cbl SPR Kd vs Cbl-b SPR Kd; for Kd: SPR, 20° C.
Chain of Human Cbl-b (residues 40-426) (Q13191 40-426): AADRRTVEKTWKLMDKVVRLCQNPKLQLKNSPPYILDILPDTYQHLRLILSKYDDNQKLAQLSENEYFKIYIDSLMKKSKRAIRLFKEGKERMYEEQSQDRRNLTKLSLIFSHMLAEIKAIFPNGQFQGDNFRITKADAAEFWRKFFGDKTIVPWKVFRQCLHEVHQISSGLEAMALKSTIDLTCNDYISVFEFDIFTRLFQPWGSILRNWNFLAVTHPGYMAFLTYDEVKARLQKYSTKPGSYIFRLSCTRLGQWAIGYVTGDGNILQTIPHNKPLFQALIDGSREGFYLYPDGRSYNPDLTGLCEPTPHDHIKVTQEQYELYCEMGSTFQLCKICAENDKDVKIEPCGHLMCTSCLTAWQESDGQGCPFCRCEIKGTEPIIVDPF
Experimental: (§2) Affinity of binding to Cbl-b and c-Cbl for compounds described herein was assessed by surface plasmon resonance (SPR) according to the following protocol.
(§3) A surface capture range of 1300-1500 RU of protein was used for both isoforms.
(§4) For SPR measurements, 6 concentrations with 2 fold serial dilution were measured with blanks flanking each series for double referencing. […] SPR sensorgrams were recorded in multi-cycle kinetics format, with a contact time of 60 seconds and a flow rate of 40 μl/min, the dissociation time was varied between 120-1200 seconds aiming for 4-5 half-lives of the measured interaction.
(§5) Kinetic and affinity parameters were extracted from the multicycle kinetics data fitting to a 1:1 binding model using the Biacore™ Incyte evaluation software (Cytiva).
(§6) Chaser assay utilize a single cycle kinetics SPR experiment with a contact time of 120 seconds, a flow rate of 50 μl/min and a dissociation time of 450 seconds. Single cycle kinetics titration utilized an initial blank injection and 5 concentrations with 2 fold serial dilution with a maximum concentration of 500 nM, blanked to a preceding 6 point blank single cycle kinetics injection for double referencing.
(§7) The kd is measured independently by determining the percentage unoccupied compound binding site over time by measuring the binding of a chaser compound measured by SPR.
(§8) Chaser binding was measured by a multicycle kinetics SPR experiment using a contact time of 20 seconds, a flow rate of 30 μl/min, and a dissociation time of 120 seconds. […] The % compound bound at a given time was determined by comparison to a single injection of chaser preceding the single cycle kinetics titration defined below. % Compound Bound=(1−(RUT/RUT0))*100
(§9) The % compound bound is plotted against time in seconds and fit to a single exponential, where the exponent represents the kd of the compound-protein complex. The single cycle kinetics experiment of the compound is then fit with a fixed kd determined using the chaser.

c-Cbl (residues 47-435) = c-Cbl (residues 47-435) (Homo sapiens (Human), UniProt P22681); assay: c-Cbl SPR assay; assay type: binding; details: 20° C.
Chain of c-Cbl (residues 47-435) (P22681 47-435): as the sequence (P22681 47-435) above
Experimental: as §2, §3, §4, §5, §6, §7, §8, §9

[2] = ratio C-cbl Lck HTRF IC50 / Cbl-b Lck HTRF IC50

Chain of Cbl-b (Q13191 40-426): as the sequence (Q13191 40-426) above

| SMILES | IC50 (Cbl-b) [nM] | fold-selectivity (Cbl-b over C-cbl) (Cbl-b; [2]) | IC50 (c-Cbl) [nM] | Fold of selectivity [1] [×] | Kd [1] [nM] | Kd (c-Cbl (residues 47-435)) [nM] | IC50 (Cbl-b; Example 121) [nM] | (fold-selectivity) Cbl-b and C-Cbl Selectivity (Cbl-b; [2]) [x] |
| --- | --- | --- | --- | --- | --- | --- | --- | --- |
| Cn1cnnc1[C@]1(c2cccc(N3Cc4c(cc(CNC5(C)CCC5)cc4C(F)(F)F)C3=O)c2)C[C@@H]([S@+](C)[O-])C1 (single isomer, unassigned) [Compound 160] | 1300 | 3.9x | 5300 | 0.76 | 1300 | 1000 | – | – |
| Cn1cnnc1[C@@H](c1cccc(N2Cc3c(cc(CNC4(C)CCC4)cc3C(F)(F)F)C2=O)c1)C1CC(=O)C1 (single isomer, unassigned) [Compound 114] | 360 | 2.1 x | 770 | 2.1 | 290 | 610 | – | – |
| CC(C)[C@H]1CN(C)CCN1Cc1cc2c(c(C(F)(F)F)c1)CN(c1cc([C@]3(c4nncn4C)C[C@H](C)C3)cc(NC3CCCC3)n1)C2=O (single isomer, unassigned) [Compound 75] | 17 | (1.3x) | 22 | 7.7 | 31 | 230 | – | – |
| Cn1cnnc1[C@]1(c2cccc(N3Cc4c(cc(CNC5(C)CCC5)cc4C(F)(F)F)C3=O)c2)C[C@H](CO)C1.O=CO [Compound 99, 2-(3-((1s,3s)-3-(hydroxymethyl)-1-(4-methyl-4H-1,2,4-triazol-3-yl)cyclobutyl)phenyl)-6-(((1-methylcyclobutyl)amino)methyl)-4-(trifluoromethyl)isoindolin-1-one formate] | 86 | 3.7x | 320 | 4.8 | 48 | 230 | – | – |
| CO[C@](c1cccc(N2Cc3c(cc(CNC4(C)CCC4)cc3C(F)(F)F)C2=O)c1)(c1nncn1C)C1CCC1 (single isomer, unassigned) [Compound 119] | 3600 | 3.6x | 13000 | 3.0 | 780 | 2300 | – | – |
| Cn1cnnc1[C@]1(c2cccc(N3Cc4c(cc(CNC5(C)CCC5)cc4C(F)F)C3=O)c2)C[C@@H](F)C1 [Compound 272, 4-(difluoromethyl)-2-(3-((1r,3r)-3-fluoro-1-(4-methyl-4H-1,2,4-triazol-3-yl)cyclobutyl)phenyl)-6-(((1-methylcyclobutyl)amino)methyl)isoindolin-1-one] | 15 | 1.7x | 25 | 7.6 | 1.4 | 11 | – | – |
| Cn1cnnc1[C@@H](c1cccc(N2Cc3c(Cl)cc(CNC4(C)CCC4)cc3C2=O)c1)[C@H]1C[C@@H](F)C1 [Compound 317, 4-chloro-2-(3-((R)-((1s,3S)-3-fluorocylcobutyl)(4-methyl-4H-1,2,4-triazol-3-yl)methyl)phenyl)-6-(((1-methylcyclobutyl)amino)methyl)isoindolin-1-one] | 170 | 6.5x | 1100 | 15 | 100 | 1500 | – | – |
| CNc1cc(N2Cc3c(cc(CNC4(C)CCC4)cc3C(F)(F)F)C2=O)cc([C@]2(c3nncn3C)C[C@@H](OC)C2)c1 [Compound 238, 2-(3-((1s,3s)-3-methoxy-1-(4-methyl-4H-1,2,4-triazol-3-yl)cyclobutyl)-5-(methylamino)phenyl)-6-(((1-methylcyclobutyl)amino)methyl)-4-(trifluoromethyl)isoindolin-1-one] | 12 | 1.1x | 14 | 2.6 | 2.2 | 5.8 | – | – |
| Cn1cnnc1[C@@H](C[C@H]1CCOC1)c1cccc(N2Cc3c(cc(CNC4(C)CCC4)cc3C(F)(F)F)C2=O)c1 [Compound 277, 2-(3-((S)-1-(4-methyl-4H-1,2,4-triazol-3-yl)-2-((S)-tetrahydrofuran-3-yl)ethyl)phenyl)-6-(((1-methylcyclobutyl)amino)methyl)-4-(trifluoromethyl)isoindolin-1-one] | 3600 | 2.3x | 8600 | 5.3 | 1400 | 7700 | – | – |
| Cn1cnnc1[C@]1(c2cccc(N3Cc4c(cc(CNC5(C)CCC5)cc4C(F)(F)F)C3=O)c2)C[C@@H](OCC#N)C1 [Compound 281, 2-((1r,3r)-3-(4-methyl-4H-1,2,4-triazol-3-yl)-3-(3-(6-(((1-methylcyclobutyl)amino)methyl)-1-oxo-4-(trifluoromethyl)isoindolin-2-yl)phenyl)cyclobutoxy)acetontrile] | 6.7 | 1.3x | 9.5 | 6.3 | 1.1 | 7 | – | – |

More lines, in order of falling IC50 (c-Cbl), values ahead:

| IC50 (Cbl-b) [nM] | fold-selectivity (Cbl-b over C-cbl) (Cbl-b; [2]) | IC50 (c-Cbl) [nM] | Fold of selectivity [1] [×] | Kd [1] [nM] | Kd (c-Cbl (residues 47-435)) [nM] | IC50 (Cbl-b; Example 121) [nM] | (fold-selectivity) Cbl-b and C-Cbl Selectivity (Cbl-b; [2]) [x] | SMILES |
| --- | --- | --- | --- | --- | --- | --- | --- | --- |
| 4900 | 4.1x | 20000 | 8.6 | 3600 | 31000 | – | – | Cn1cnnc1C1(c2cccc(N3Cc4c(cc(CNC5(C)CCC5)cc4C(F)(F)F)C3=O)c2)CN(C2COC2)C1 [Compound 111, 2-(3-(3-(4-methyl-4H-1,2,4-triazol-3-yl)-1-(oxetan-3-yl)azetidin-3-yl)phenyl)-6-(((1-methylcyclobutyl)amino)methyl)-4-(trifluoromethyl)isoindolin-1-one] |
| 1400 | 4.7x | 6400 | 5.8 | 910 | 5200 | – | – | COC[C@H]1CC1(c1cccc(N2Cc3c(cc(CNC4(C)CCC4)cc3C(F)(F)F)C2=O)c1)c1nncn1C (single isomer, unassigned) [Compound 167] |
| 240 | 11x | 2500 | 11 | 240 | 2600 | – | – | Cn1cnnc1[C@H](c1cccc(N2Cc3c(cc(CNC4(C)CCC4)cc3C(F)(F)F)C2=O)c1)[C@H]1C[C@@H](C)C1 (single isomer, unassigned) [Compound 377] |
| 81 | 10x | 810 | 10 | 77 | 770 | – | – | CO[C@H]1C[C@@](c2cc(NC3CCCC3)cc(N3Cc4c(cc(CNC5(C)CCC5)cc4C(F)(F)F)C3=O)c2)(c2nncn2C)C1 [Compound 218, 2-(3-(cyclopentylamino)-5-((1s,3s)-3-methoxy-1-(4-methyl-4H-1,2,4-triazol-3-yl)cyclobutyl)phenyl)-6-(((1-methylcyclobutyl)amino)methyl)-4-(trifluoromethyl)isoindolin-1-one] |
| 37 | 4.5x | 170 | 7.6 | 25 | 190 | – | – | CCOC1CC([C@@H](c2cccc(N3Cc4c(cc(CNC5(C)CCC5)cc4C(F)(F)F)C3=O)c2)c2nncn2C)C1 (single isomer, unassigned) [Compound 267] |
| 12 | 3.5x | 41 | 8.0 | 6.4 | 53 | – | – | Cn1cnnc1[C@H](c1cccc(N2Cc3c(Cl)cc(CNC4(C)CCC4)cc3C2=O)c1)[C@H]1C[C@@H](F)C1 (single isomer, unassigned) [Compound 319] |
| 12 | 1.7x | 21 | 7.5 | 2 | 15 | – | – | Cn1cnnc1[C@]1(c2cccc(N3Cc4c(cc(CNC5(C)CCC5)cc4C(F)(F)F)C3=O)c2)C[C@H](F)C1 [Compound 95, 2-(3-((1s,3s)-3-fluoro-1-(4-methyl-4H-1,2,4-triazol-3-yl)cyclobutyl)-phenyl)-6-(((1-methylcyclobutyl)amino)methyl)-4-(trifluoromethyl)isoindolin-1-one] |
| – | – | 7.1 | 3.3 | 1.1 | 3.6 | 6.5 | 1.1 | CC(C)CNCc1cc2c(c(C(F)(F)F)c1)CN(c1cccc([C@H](c3nncn3C)C3COC3)c1)C2=O (single isomer, unassigned) [Compound 464] |

Source: patent US12187709B2 (Genentech, Inc., priority 2021, dated 2025)
